From the NIST ThermoML archive (doi:10.1021/je400184t)
Numbers after ± are expanded uncertainties.

Assay: excess molar enthalpy (molar enthalpy of mixing); xn = mol fraction of the nth substance listed
Conditions: 298.15 K, 101 kPa, Liquid, Calvet calorimetry

## NCCO [2-aminoethan-1-ol] + c1ccncc1
x2 = 0.00998
  excess molar enthalpy: 0.00765 ± 0.000478 kcal/mol
x2 = 0.0187
  excess molar enthalpy: 0.0143 ± 0.000478 kcal/mol
x2 = 0.02728
  excess molar enthalpy: 0.021 ± 0.000478 kcal/mol
x2 = 0.0357
  excess molar enthalpy: 0.0272 ± 0.000717 kcal/mol
x2 = 0.04398
  excess molar enthalpy: 0.0335 ± 0.000717 kcal/mol
x2 = 0.05212
  excess molar enthalpy: 0.0394 ± 0.000717 kcal/mol
x2 = 0.06012
  excess molar enthalpy: 0.0452 ± 0.000717 kcal/mol
x2 = 0.06798
  excess molar enthalpy: 0.0509 ± 0.000717 kcal/mol
x2 = 0.07572
  excess molar enthalpy: 0.0562 ± 0.000717 kcal/mol
x2 = 0.08333
  excess molar enthalpy: 0.0614 ± 0.000717 kcal/mol
x2 = 0.09081
  excess molar enthalpy: 0.0667 ± 0.000717 kcal/mol
x2 = 0.09818
  excess molar enthalpy: 0.0715 ± 0.000956 kcal/mol
x2 = 0.1054
  excess molar enthalpy: 0.0762 ± 0.000956 kcal/mol
x2 = 0.1125
  excess molar enthalpy: 0.0808 ± 0.000956 kcal/mol
x2 = 0.1196
  excess molar enthalpy: 0.0851 ± 0.000956 kcal/mol
x2 = 0.1265
  excess molar enthalpy: 0.0894 ± 0.000956 kcal/mol
x2 = 0.1333
  excess molar enthalpy: 0.093 ± 0.000956 kcal/mol
x2 = 0.14
  excess molar enthalpy: 0.09656 ± 0.000956 kcal/mol
x2 = 0.1466
  excess molar enthalpy: 0.1001 ± 0.000956 kcal/mol
x2 = 0.153
  excess molar enthalpy: 0.1035 ± 0.000956 kcal/mol
x2 = 0.1594
  excess molar enthalpy: 0.1066 ± 0.000956 kcal/mol
x2 = 0.1657
  excess molar enthalpy: 0.1097 ± 0.000956 kcal/mol
x2 = 0.1719
  excess molar enthalpy: 0.113 ± 0.0012 kcal/mol
x2 = 0.1782
  excess molar enthalpy: 0.115 ± 0.0012 kcal/mol
x2 = 0.1845
  excess molar enthalpy: 0.118 ± 0.0012 kcal/mol
x2 = 0.1907
  excess molar enthalpy: 0.1212 ± 0.0012 kcal/mol
x2 = 0.197
  excess molar enthalpy: 0.124 ± 0.0012 kcal/mol
x2 = 0.2032
  excess molar enthalpy: 0.1267 ± 0.0012 kcal/mol
x2 = 0.2095
  excess molar enthalpy: 0.1293 ± 0.0012 kcal/mol
x2 = 0.2157
  excess molar enthalpy: 0.1319 ± 0.0012 kcal/mol
x2 = 0.222
  excess molar enthalpy: 0.1343 ± 0.0012 kcal/mol
x2 = 0.2282
  excess molar enthalpy: 0.137 ± 0.0012 kcal/mol
x2 = 0.2345
  excess molar enthalpy: 0.1393 ± 0.0012 kcal/mol
x2 = 0.2407
  excess molar enthalpy: 0.1417 ± 0.0012 kcal/mol
x2 = 0.247
  excess molar enthalpy: 0.1439 ± 0.0012 kcal/mol
x2 = 0.2532
  excess molar enthalpy: 0.1463 ± 0.00143 kcal/mol
x2 = 0.2595
  excess molar enthalpy: 0.1484 ± 0.00143 kcal/mol
x2 = 0.2657
  excess molar enthalpy: 0.1508 ± 0.00143 kcal/mol
x2 = 0.272
  excess molar enthalpy: 0.153 ± 0.00143 kcal/mol
x2 = 0.2782
  excess molar enthalpy: 0.1551 ± 0.00143 kcal/mol
x2 = 0.2845
  excess molar enthalpy: 0.157 ± 0.00143 kcal/mol
x2 = 0.2907
  excess molar enthalpy: 0.1592 ± 0.00143 kcal/mol
x2 = 0.297
  excess molar enthalpy: 0.1611 ± 0.00143 kcal/mol
x2 = 0.3032
  excess molar enthalpy: 0.163 ± 0.00143 kcal/mol
x2 = 0.3095
  excess molar enthalpy: 0.1649 ± 0.00143 kcal/mol
x2 = 0.3157
  excess molar enthalpy: 0.1668 ± 0.00143 kcal/mol
x2 = 0.322
  excess molar enthalpy: 0.1687 ± 0.00143 kcal/mol
x2 = 0.3282
  excess molar enthalpy: 0.1704 ± 0.00143 kcal/mol
x2 = 0.3345
  excess molar enthalpy: 0.1723 ± 0.00143 kcal/mol
x2 = 0.3407
  excess molar enthalpy: 0.174 ± 0.00143 kcal/mol
x2 = 0.347
  excess molar enthalpy: 0.1757 ± 0.00143 kcal/mol
x2 = 0.3532
  excess molar enthalpy: 0.1773 ± 0.00167 kcal/mol
x2 = 0.3595
  excess molar enthalpy: 0.179 ± 0.00167 kcal/mol
x2 = 0.3621
  excess molar enthalpy: 0.1797 ± 0.00167 kcal/mol
x2 = 0.3652
  excess molar enthalpy: 0.1804 ± 0.00167 kcal/mol
x2 = 0.3684
  excess molar enthalpy: 0.1812 ± 0.00167 kcal/mol
x2 = 0.3716
  excess molar enthalpy: 0.1821 ± 0.00167 kcal/mol
x2 = 0.3748
  excess molar enthalpy: 0.1828 ± 0.00167 kcal/mol
x2 = 0.3781
  excess molar enthalpy: 0.1836 ± 0.00167 kcal/mol
x2 = 0.3815
  excess molar enthalpy: 0.1845 ± 0.00167 kcal/mol
x2 = 0.385
  excess molar enthalpy: 0.1852 ± 0.00167 kcal/mol
x2 = 0.3885
  excess molar enthalpy: 0.1859 ± 0.00167 kcal/mol
x2 = 0.3921
  excess molar enthalpy: 0.1867 ± 0.00167 kcal/mol
x2 = 0.3957
  excess molar enthalpy: 0.1869 ± 0.00167 kcal/mol
x2 = 0.3994
  excess molar enthalpy: 0.1879 ± 0.00167 kcal/mol
x2 = 0.4032
  excess molar enthalpy: 0.1888 ± 0.00167 kcal/mol
x2 = 0.407
  excess molar enthalpy: 0.1898 ± 0.00167 kcal/mol
x2 = 0.4109
  excess molar enthalpy: 0.1905 ± 0.00167 kcal/mol
x2 = 0.4149
  excess molar enthalpy: 0.1914 ± 0.00167 kcal/mol
x2 = 0.419
  excess molar enthalpy: 0.1924 ± 0.00167 kcal/mol
x2 = 0.4232
  excess molar enthalpy: 0.1934 ± 0.00167 kcal/mol
x2 = 0.4274
  excess molar enthalpy: 0.1943 ± 0.00167 kcal/mol
x2 = 0.4317
  excess molar enthalpy: 0.195 ± 0.00167 kcal/mol
x2 = 0.4361
  excess molar enthalpy: 0.196 ± 0.00167 kcal/mol
x2 = 0.4406
  excess molar enthalpy: 0.1969 ± 0.00167 kcal/mol
x2 = 0.4452
  excess molar enthalpy: 0.1977 ± 0.00167 kcal/mol
x2 = 0.4499
  excess molar enthalpy: 0.1986 ± 0.00167 kcal/mol
x2 = 0.4547
  excess molar enthalpy: 0.1993 ± 0.00167 kcal/mol
x2 = 0.4596
  excess molar enthalpy: 0.2003 ± 0.00167 kcal/mol
x2 = 0.4646
  excess molar enthalpy: 0.201 ± 0.00167 kcal/mol
x2 = 0.4698
  excess molar enthalpy: 0.202 ± 0.00167 kcal/mol
x2 = 0.475
  excess molar enthalpy: 0.2027 ± 0.00167 kcal/mol
x2 = 0.4803
  excess molar enthalpy: 0.2034 ± 0.00167 kcal/mol
x2 = 0.4858
  excess molar enthalpy: 0.2043 ± 0.00167 kcal/mol
x2 = 0.4914
  excess molar enthalpy: 0.2051 ± 0.00167 kcal/mol
x2 = 0.4971
  excess molar enthalpy: 0.2055 ± 0.00167 kcal/mol
x2 = 0.503
  excess molar enthalpy: 0.2063 ± 0.00167 kcal/mol
x2 = 0.509
  excess molar enthalpy: 0.207 ± 0.00191 kcal/mol
x2 = 0.5151
  excess molar enthalpy: 0.2075 ± 0.00191 kcal/mol
x2 = 0.5214
  excess molar enthalpy: 0.2079 ± 0.00191 kcal/mol
x2 = 0.5219
  excess molar enthalpy: 0.2082 ± 0.00191 kcal/mol
x2 = 0.5284
  excess molar enthalpy: 0.2087 ± 0.00191 kcal/mol
x2 = 0.535
  excess molar enthalpy: 0.2091 ± 0.00191 kcal/mol
x2 = 0.5418
  excess molar enthalpy: 0.2096 ± 0.00191 kcal/mol
x2 = 0.5488
  excess molar enthalpy: 0.2098 ± 0.00191 kcal/mol
x2 = 0.5559
  excess molar enthalpy: 0.2103 ± 0.00191 kcal/mol
x2 = 0.5633
  excess molar enthalpy: 0.2103 ± 0.00191 kcal/mol
x2 = 0.5708
  excess molar enthalpy: 0.2106 ± 0.00191 kcal/mol
x2 = 0.5786
  excess molar enthalpy: 0.2106 ± 0.00191 kcal/mol
x2 = 0.5865
  excess molar enthalpy: 0.2106 ± 0.00191 kcal/mol
x2 = 0.5947
  excess molar enthalpy: 0.2106 ± 0.00191 kcal/mol
x2 = 0.6031
  excess molar enthalpy: 0.2103 ± 0.00191 kcal/mol
x2 = 0.6117
  excess molar enthalpy: 0.2101 ± 0.00191 kcal/mol
x2 = 0.6206
  excess molar enthalpy: 0.2096 ± 0.00191 kcal/mol
x2 = 0.6298
  excess molar enthalpy: 0.2089 ± 0.00191 kcal/mol
x2 = 0.6392
  excess molar enthalpy: 0.2082 ± 0.00191 kcal/mol
x2 = 0.649
  excess molar enthalpy: 0.2072 ± 0.00191 kcal/mol
x2 = 0.659
  excess molar enthalpy: 0.206 ± 0.00167 kcal/mol
x2 = 0.6693
  excess molar enthalpy: 0.2046 ± 0.00167 kcal/mol
x2 = 0.68
  excess molar enthalpy: 0.2029 ± 0.00167 kcal/mol
x2 = 0.691
  excess molar enthalpy: 0.201 ± 0.00167 kcal/mol
x2 = 0.7024
  excess molar enthalpy: 0.1989 ± 0.00167 kcal/mol
x2 = 0.7141
  excess molar enthalpy: 0.1965 ± 0.00167 kcal/mol
x2 = 0.7263
  excess molar enthalpy: 0.1934 ± 0.00167 kcal/mol
x2 = 0.7389
  excess molar enthalpy: 0.1902 ± 0.00167 kcal/mol
x2 = 0.7519
  excess molar enthalpy: 0.1862 ± 0.00167 kcal/mol
x2 = 0.7654
  excess molar enthalpy: 0.1819 ± 0.00167 kcal/mol
x2 = 0.7793
  excess molar enthalpy: 0.1766 ± 0.00167 kcal/mol
x2 = 0.7938
  excess molar enthalpy: 0.1709 ± 0.00143 kcal/mol
x2 = 0.8089
  excess molar enthalpy: 0.1642 ± 0.00143 kcal/mol
x2 = 0.8245
  excess molar enthalpy: 0.1568 ± 0.00143 kcal/mol
x2 = 0.8408
  excess molar enthalpy: 0.1482 ± 0.00143 kcal/mol
x2 = 0.8577
  excess molar enthalpy: 0.1377 ± 0.0012 kcal/mol
x2 = 0.8753
  excess molar enthalpy: 0.1264 ± 0.0012 kcal/mol
x2 = 0.8936
  excess molar enthalpy: 0.113 ± 0.0012 kcal/mol
x2 = 0.9127
  excess molar enthalpy: 0.09728 ± 0.000956 kcal/mol
x2 = 0.9327
  excess molar enthalpy: 0.0791 ± 0.000956 kcal/mol
x2 = 0.9535
  excess molar enthalpy: 0.0574 ± 0.000717 kcal/mol
x2 = 0.9753
  excess molar enthalpy: 0.0323 ± 0.000717 kcal/mol
x2 = 0.9981
  excess molar enthalpy: 0.0012 ± 0.000478 kcal/mol
